Patent US6043217A, “Amide derivative of amythiamicin” (Zaidan Hojin Biseibutsu Kagaku Kenyu Kai, priority 1996, dated 2000)

Tests used:
Assay type in all cases: cell-based
[1] = test system: Staphylococcus aureus FDA 209P; assay: MIC, standard serial dilution method; conditions: Muller-Hinton agar medium, 37° C.
[2] = test system: Staphylococcus aureus Smith; assay: MIC, standard serial dilution method; conditions: Muller-Hinton agar medium, 37° C.
[3] = test system: Staphylococcus aureus MS 9610; assay: MIC, standard serial dilution method; conditions: Muller-Hinton agar medium, 37° C.
[4] = test system: Staphylococcus aureus No. 5 (MRSA); assay: MIC, standard serial dilution method; conditions: Muller-Hinton agar medium, 37° C.
[5] = test system: Staphylococcus aureus No. 17 (MRSA); assay: MIC, standard serial dilution method; conditions: Muller-Hinton agar medium, 37° C.
[6] = test system: Staphylococcus aureus MS 16526; assay: MIC, standard serial dilution method; conditions: Muller-Hinton agar medium, 37° C.
[7] = test system: Staphylococcus aureus TY-0428; assay: MIC, standard serial dilution method; conditions: Muller-Hinton agar medium, 37° C.
[8] = test system: Micrococcus luteus FDA 16; assay: MIC, standard serial dilution method; conditions: Muller-Hinton agar medium, 37° C.
[9] = test system: Micrococcus luteus IFO 3333; assay: MIC, standard serial dilution method; conditions: Muller-Hinton agar medium, 37° C.
[10] = test system: Micrococcus luteus PIC 1001; assay: MIC, standard serial dilution method; conditions: Muller-Hinton agar medium, 37° C.
Bacillus anthracis = conditions: Muller-Hinton agar medium, 37° C.
[11] = test system: Bacillus subtilis NRRL B-558; assay: MIC, standard serial dilution method; conditions: Muller-Hinton agar medium, 37° C.
[12] = test system: Bacillus subtilis PCI 219; assay: MIC, standard serial dilution method; conditions: Muller-Hinton agar medium, 37° C.
[13] = test system: Bacillus cereus ATCC 10702; assay: MIC, standard serial dilution method; conditions: Muller-Hinton agar medium, 37° C.
[14] = test system: Corynebacterium bovis 1810; assay: MIC, standard serial dilution method; conditions: Muller-Hinton agar medium, 37° C.
Escherichia coli NIHJ = assay: MIC, standard serial dilution method; conditions: Muller-Hinton agar medium, 37° C.
Escherichia coli K-12 = assay: MIC, standard serial dilution method; conditions: Muller-Hinton agar medium, 37° C.
Escherichia coli BEM 11 = assay: MIC, standard serial dilution method; conditions: Muller-Hinton agar medium, 37° C.
[15] = test system: Escherichia coli BEM 1121; assay: MIC, standard serial dilution method; conditions: Muller-Hinton agar medium, 37° C.
Escherichia coli BE 1186 = assay: MIC, standard serial dilution method; conditions: Muller-Hinton agar medium, 37° C.
[16] = test system: Shigella dysenteria JS 11910; assay: MIC, standard serial dilution method; conditions: Muller-Hinton agar medium, 37° C.
[17] = test system: Escherichia coli K-12 ML 1692; assay: MIC, standard serial dilution method; conditions: Muller-Hinton agar medium, 37° C.
Procedure: (§1) The antibacterial activities of the amythiamicin amide derivative of the general formula (I) according to this invention are now concretely described. Compounds No. 1 to No. 11 according to this invention, which were respectively prepared in Examples 1 to 11 hereinafter given, were tested as the test compounds for their minimum inhibitory concentrations (MIC.) (μg/ml) against growth of a variety of test microorganisms by a standard serial dilution method. In the tests, the incubation medium used was Muller-Hinton agar medium and the incubation temperature was 37° C. The test results are shown as antibacterial spectra in the following Tables 2 and 3.

[18] = test system: Shigella clexnerl JS 11749; assay: MIC, standard serial dilution method; conditions: Muller-Hinton agar medium, 37° C.
Procedure: as §1

Shigella sonnei JS 11746 = assay: MIC, standard serial dilution method; conditions: Muller-Hinton agar medium, 37° C.
Procedure: as §1

Salmonella typhi T-63 = assay: MIC, standard serial dilution method; conditions: Muller-Hinton agar medium, 37° C.
[19] = test system: Salmonella enteritidis 1891; assay: MIC, standard serial dilution method; conditions: Muller-Hinton agar medium, 37° C.
Proteus vulgaris OX 19 = assay: MIC, standard serial dilution method; conditions: Muller-Hinton agar medium, 37° C.
[20] = test system: Proteus mirabilis IFM OM-9; assay: MIC, standard serial dilution method; conditions: Muller-Hinton agar medium, 37° C.
[21] = test system: Providencia rettgeri GN 311; assay: MIC, standard serial dilution method; conditions: Muller-Hinton agar medium, 37° C.
[22] = test system: Providencia rettgeri GN 466; assay: MIC, standard serial dilution method; conditions: Muller-Hinton agar medium, 37° C.
Serratia marcescens = assay: MIC, standard serial dilution method; conditions: Muller-Hinton agar medium, 37° C.
[23] = test system: Pseudomonas aeruginosa A3; assay: MIC, standard serial dilution method; conditions: Muller-Hinton agar medium, 37° C.
[24] = test system: Pseudomonas aeruginosa GN315; assay: MIC, standard serial dilution method; conditions: Muller-Hinton agar medium, 37° C.
[25] = test system: Klebsiella pneumonia PCI 602; assay: MIC, standard serial dilution method; conditions: Klebsiella pneumonia PCI 602 (Table 2); Muller-Hinton agar medium, 37° C.
[26] = test system: Mycobacterium smegmatis ATCC 607; assay: MIC, standard serial dilution method; conditions: Muller-Hinton agar medium, 37° C.
Candida albicans 3147 = assay: MIC, standard serial dilution method; conditions: Muller-Hinton agar medium, 37° C.

Row | Structure (SMILES) | Minimum growth inhibitory concentrations (MIC.) [1] [µg/mL] | Minimum growth inhibitory concentrations (MIC.) [2] [µg/mL] | Minimum growth inhibitory concentrations (MIC.) [3] [µg/mL] | Minimum growth inhibitory concentrations (MIC.) [4] [µg/mL] | Minimum growth inhibitory concentrations (MIC.) [5] [µg/mL] | Minimum growth inhibitory concentrations (MIC.) [6] [µg/mL] | Minimum growth inhibitory concentrations (MIC.) [7] [µg/mL] | Minimum growth inhibitory concentrations (MIC.) [8] [µg/mL] | Minimum growth inhibitory concentrations (MIC.) [9] [µg/mL] | Minimum growth inhibitory concentrations (MIC.) [10] [µg/mL] | Minimum growth inhibitory concentrations (MIC.) (Bacillus anthracis) [µg/mL] | Minimum growth inhibitory concentrations (MIC.) [11] [µg/mL] | Minimum growth inhibitory concentrations (MIC.) [12] [µg/mL] | Minimum growth inhibitory concentrations (MIC.) [13] [µg/mL] | Minimum growth inhibitory concentrations (MIC.) [14] [µg/mL] | Minimum growth inhibitory concentrations (MIC.) (Escherichia coli NIHJ) [µg/mL] | Minimum growth inhibitory concentrations (MIC.) (Escherichia coli K-12) [µg/mL] | Minimum growth inhibitory concentrations (MIC.) (Escherichia coli BEM 11) [µg/mL] | Minimum growth inhibitory concentrations (MIC.) [15] [µg/mL] | Minimum growth inhibitory concentrations (MIC.) (Escherichia coli BE 1186) [µg/mL] | other results
1 | CNC(=O)CC1NC(=O)c2csc(n2)-c2ccc(-c3nc(C(=O)NCCCN)cs3)nc2-c2csc(n2)-c2csc(n2)C(C(C)C)NC(=O)CNC(=O)c2csc(n2)C(C(C)C)NC(=O)c2nc1sc2C (stereo not drawn) [Compound No. 5] | 0.78 | 3.12 | 3.12 | 6.25 | 6.25 | 6.25 | 3.12 | 12.5 | 3.12 | 0.78 | 0.78 | 6.25 | 3.12 | 1.56 | > 100 | > 100 | > 100 | > 100 | > 100 | > 100 | Minimum growth inhibitory concentrations (MIC.) [16]: > 100 µg/mL; Minimum growth inhibitory concentrations (MIC.) [17]: > 100 µg/mL; Minimum growth inhibitory concentrations (MIC.) [18]: > 100 µg/mL; Minimum growth inhibitory concentrations (MIC.) (Shigella sonnei JS 11746): > 100 µg/mL; Minimum growth inhibitory concentrations (MIC.) (Salmonella typhi T-63): > 100 µg/mL; Minimum growth inhibitory concentrations (MIC.) [19]: > 100 µg/mL; Minimum growth inhibitory concentrations (MIC.) (Proteus vulgaris OX 19): > 100 µg/mL; Minimum growth inhibitory concentrations (MIC.) [20]: > 100 µg/mL; Minimum growth inhibitory concentrations (MIC.) [21]: > 100 µg/mL; Minimum growth inhibitory concentrations (MIC.) [22]: > 100 µg/mL; Minimum growth inhibitory concentrations (MIC.) (Serratia marcescens): > 100 µg/mL; Minimum growth inhibitory concentrations (MIC.) [23]: > 100 µg/mL; Minimum growth inhibitory concentrations (MIC.) [24]: > 100 µg/mL; Minimum growth inhibitory concentrations (MIC.) [25]: > 100 µg/mL; Minimum growth inhibitory concentrations (MIC.) [26]: > 100 µg/mL; Minimum growth inhibitory concentrations (MIC.) (Candida albicans 3147): > 100 µg/mL
2 | CCCCNCCCNCCCNC(=O)c1csc(-c2ccc3c(n2)-c2csc(n2)-c2csc(n2)C(C(C)C)NC(=O)CNC(=O)c2csc(n2)C(C(C)C)NC(=O)c2nc(sc2C)C(CC(=O)NC)NC(=O)c2csc-3n2)n1 (stereo not drawn) [Compound No. 6] | 50 | 25 | > 100 | > 100 | > 100 | > 100 | > 100 | > 100 | > 100 | > 100 | 25 | 25 | > 100 | > 100 | > 100 | > 100 | > 100 | > 100 | > 100 | > 100 | Minimum growth inhibitory concentrations (MIC.) [16]: > 100 µg/mL; Minimum growth inhibitory concentrations (MIC.) [17]: > 100 µg/mL; Minimum growth inhibitory concentrations (MIC.) [18]: > 100 µg/mL; Minimum growth inhibitory concentrations (MIC.) (Shigella sonnei JS 11746): > 100 µg/mL; Minimum growth inhibitory concentrations (MIC.) (Salmonella typhi T-63): > 100 µg/mL; Minimum growth inhibitory concentrations (MIC.) [19]: > 100 µg/mL; Minimum growth inhibitory concentrations (MIC.) (Proteus vulgaris OX 19): > 100 µg/mL; Minimum growth inhibitory concentrations (MIC.) [20]: > 100 µg/mL; Minimum growth inhibitory concentrations (MIC.) [21]: > 100 µg/mL; Minimum growth inhibitory concentrations (MIC.) [22]: > 100 µg/mL; Minimum growth inhibitory concentrations (MIC.) (Serratia marcescens): > 100 µg/mL; Minimum growth inhibitory concentrations (MIC.) [23]: > 100 µg/mL; Minimum growth inhibitory concentrations (MIC.) [24]: > 100 µg/mL; Minimum growth inhibitory concentrations (MIC.) [25]: > 100 µg/mL; Minimum growth inhibitory concentrations (MIC.) [26]: > 100 µg/mL; Minimum growth inhibitory concentrations (MIC.) (Candida albicans 3147): > 100 µg/mL
3 | CNC(=O)CC1NC(=O)c2csc(n2)-c2ccc(-c3nc(C(=O)NCCCN(C)CCCNCCc4ccc(Cl)cc4)cs3)nc2-c2csc(n2)-c2csc(n2)C(C(C)C)NC(=O)CNC(=O)c2csc(n2)C(C(C)C)NC(=O)c2nc1sc2C (stereo not drawn) [Compound No. 7] | > 100 | > 100 | > 100 | > 100 | > 100 | > 100 | > 100 | 6.25 | 12.5 | 12.5 | > 100 | > 100 | 50 | > 100 | 25 | > 100 | > 100 | > 100 | > 100 | > 100 | Minimum growth inhibitory concentrations (MIC.) [16]: > 100 µg/mL; Minimum growth inhibitory concentrations (MIC.) [17]: > 100 µg/mL; Minimum growth inhibitory concentrations (MIC.) [18]: > 100 µg/mL; Minimum growth inhibitory concentrations (MIC.) (Shigella sonnei JS 11746): > 100 µg/mL; Minimum growth inhibitory concentrations (MIC.) (Salmonella typhi T-63): > 100 µg/mL; Minimum growth inhibitory concentrations (MIC.) [19]: > 100 µg/mL; Minimum growth inhibitory concentrations (MIC.) (Proteus vulgaris OX 19): > 100 µg/mL; Minimum growth inhibitory concentrations (MIC.) [20]: > 100 µg/mL; Minimum growth inhibitory concentrations (MIC.) [21]: > 100 µg/mL; Minimum growth inhibitory concentrations (MIC.) [22]: > 100 µg/mL; Minimum growth inhibitory concentrations (MIC.) (Serratia marcescens): > 100 µg/mL; Minimum growth inhibitory concentrations (MIC.) [23]: > 100 µg/mL; Minimum growth inhibitory concentrations (MIC.) [24]: > 100 µg/mL; Minimum growth inhibitory concentrations (MIC.) [25]: > 100 µg/mL; Minimum growth inhibitory concentrations (MIC.) [26]: > 100 µg/mL; Minimum growth inhibitory concentrations (MIC.) (Candida albicans 3147): > 100 µg/mL
